In patent US11697650B2, “Compounds having tetrahydroindolizine-1-carboxamide as BCL-2 inhibitors” (Eil Therapeutics, Inc., priority 2021, dated 2023) one finds IC50 data, which are given here for seven compounds.

Molecules are shown by their SMILES.

One test addresses BCL-2 (Homo sapiens (Human), UniProt P10415). Kind of test: BCL-2 TR-FRET Assay (primary PPI inhibition). Type of test: binding. The conditions noted are these: 60 min incubation; read-out: BCL2 (IC50 code, BCL-2 TR-FRET). The protocol: BCL-2 TR-FRET Assay (BPS Bioscience, #50222)
The following assay concentrations and times were used: 3 ng BCL-2, 5 μl of 1:100 anti-His Tb-labeled donor, 5 μl of 1:100 Dye-labeled acceptor, 5 μl of 1:40 BCL-2 Peptide Ligand, and 2 ul of test compound, with 60 min incubation time. The results of the assay were read using a Clariostar (BMG Labtech) plate reader with the following parameters: TR FRET, 340ex/620 and 665em; 60 μsec Delay; and 500 μsec integration.
For orientation: TR-FRET usually uses a lanthanide donor and a delayed reading to cut background.

A further test has as its target BCL-XL (Homo sapiens (Human), UniProt Q07817). Kind of test: BCL-XL TR-FRET Assay (primary PPI inhibition). The conditions noted are these: 60 min incubation; read-out: BCLxL (IC50 code, BCL-XL TR-FRET). Type of test: binding. The protocol: BCL-XL TR-FRET Assay (BPS Bioscience, #50223)
The following assay concentrations and times were used: 10.5 ng BCL-XL, 5 μl of 1:100 anti-His Tb-labeled donor, 5 μl of 1:100 Dye-labeled acceptor, 5 μl of 1:80 BCL-XL Peptide Ligand, and 2 μl of test compound, with 60 min incubation time. The results of the assay were read using a Clariostar (BMG Labtech) plate reader with the following parameters: TR FRET, 340ex/620 and 665em; 60 μsec Delay; and 500 μsec integration.

Sequence of BCL-2 (P10415 whole entry): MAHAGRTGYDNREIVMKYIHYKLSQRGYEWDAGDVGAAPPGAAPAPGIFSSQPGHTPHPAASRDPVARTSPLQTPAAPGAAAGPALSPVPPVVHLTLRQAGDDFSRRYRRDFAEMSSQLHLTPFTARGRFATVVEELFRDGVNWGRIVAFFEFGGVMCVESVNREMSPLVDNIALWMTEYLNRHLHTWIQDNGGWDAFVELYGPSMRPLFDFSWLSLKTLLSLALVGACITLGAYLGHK
Sequence of BCL-XL (Q07817 whole entry): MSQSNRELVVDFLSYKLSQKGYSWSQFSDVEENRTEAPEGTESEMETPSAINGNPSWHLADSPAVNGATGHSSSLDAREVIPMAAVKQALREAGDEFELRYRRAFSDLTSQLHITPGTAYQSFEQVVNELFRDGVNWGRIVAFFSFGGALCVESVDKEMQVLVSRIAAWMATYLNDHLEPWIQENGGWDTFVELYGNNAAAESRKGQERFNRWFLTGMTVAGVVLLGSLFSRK

A word on the IC50: it is the midpoint of a concentration-inhibition curve. In the case of `O=C(c1cc(-c2cc3c(cc2C(=O)N2Cc4ccccc4C[C@H]2CN2CCOCC2)OCO3)n2c1CCCC2)N(Cc1c(F)cccc1C(F)(F)F)c1ccc(O)cc1` [Compound 22, N-[2-fluoro-6-(trifluoromethyl)benzyl]-N-(4-hydroxyphenyl)-3-(6-{[(3S)-3-(morpholin-4-ylmethyl)-3,4-dihydroisoquinolin-2(1H)-yl]carbonyl}-1,3-benzodioxol-5-yl)-5,6,7,8-tetrahydroindolizine-1-carboxamide], the IC50 on BCL-2 was > 50 nM; at BCL-XL it was > 4000 nM.

For `O=C(c1cc(-c2cc3c(cc2C(=O)N2Cc4ccccc4C[C@H]2CN2CCOCC2)OCO3)n2c1CCCC2)N(Cc1ccc(OC(F)(F)F)cc1)c1ccc(O)cc1` [Compound 26, N-(4-hydroxyphenyl)-3-(6-{[(3S)-3-(morpholin-4-ylmethyl)-3,4-dihydroisoquinolin-2(1H)-yl]carbonyl}-1,3-benzodioxol-5-yl)-N-[4-(trifluoromethoxy)benzyl]-5,6,7,8-tetrahydroindolizine-1-carboxamide], the figures for the IC50 on BCL-2 and at BCL-XL were > 50 nM and > 4000 nM, respectively. For the compound `Cc1cccc(C)c1CN(C(=O)c1cc(-c2cc3c(cc2C(=O)N2Cc4ccccc4C[C@H]2CN2CCOCC2)OCO3)n2c1CCCC2)c1ccc(O)cc1` [Compound 30, N-(2,6-dimethylbenzyl)-N-(4-hydroxyphenyl)-3-(6-{[(3S)-3-(morpholin-4-ylmethyl)-3,4-dihydroisoquinolin-2(1H)-yl]carbonyl}-1,3-benzodioxol-5-yl)-5,6,7,8-tetrahydroindolizine-1-carboxamide], the IC50 at BCL-2 was > 50 nM. For `Cc1cccc(F)c1CN(C(=O)c1cc(-c2cc3c(cc2C(=O)N2Cc4ccccc4C[C@H]2CN2CCOCC2)OCO3)n2c1CCCC2)c1ccc(O)cc1` [Compound 32, N-(2-fluoro-6-methylbenzyl)-N-(4-hydroxyphenyl)-3-(6-{[(3S)-3-(morpholin-4-ylmethyl)-3,4-dihydroisoquinolin-2(1H)-yl]carbonyl}-1,3-benzodioxol-5-yl)-5,6,7,8-tetrahydroindolizine-1-carboxamide], at BCL-2, the IC50 lay within 10 to 50 nM. For `Cc1ccc(C(F)(F)F)cc1CN(C(=O)c1cc(-c2cc3c(cc2C(=O)N2Cc4ccccc4C[C@H]2CN2CCOCC2)OCO3)n2c1CCCC2)c1ccc(O)cc1` [Compound 38, N-(4-hydroxyphenyl)-N-[2-methyl-5-(trifluoromethyl)benzyl]-3-(6-{[(3S)-3-(morpholin-4-ylmethyl)-3,4-dihydroisoquinolin-2(1H)-yl]carbonyl}-1,3-benzodioxol-5-yl)-5,6,7,8-tetrahydroindolizine-1-carboxamide], the IC50 on BCL-2 was 10 to 50 nM. Still for that read-out and setting: with `CC(C)(C)OC(=O)c1cccc(CN(C(=O)c2cc(-c3cc4c(cc3C(=O)N3Cc5ccccc5C[C@H]3CN3CCOCC3)OCO4)n3c2CCCC3)c2ccc(O)cc2)c1` [Compound 46, tert-Butyl 3-[(4-hydroxy-N-[3-[6-[(3S)-3-(morpholinomethyl)-3,4-dihydro-1H-isoquinoline-2-carbonyl]-1,3-benzodioxol-5-yl]-5,6,7,8-tetrahydroindolizine-1-carbonyl]anilino)methyl]benzoate] the figure was 10 to 50 nM; with `N#Cc1ccccc1CN(C(=O)c1cc(-c2cc3c(cc2C(=O)N2Cc4ccccc4C[C@H]2CN2CCOCC2)OCO3)n2c1CCCC2)c1ccc(O)cc1` [Compound 47, N-[(2-Cyanophenyl)methyl]-N-(4-hydroxyphenyl)-3-[6-[(3S)-3-(morpholinomethyl)-3,4-dihydro-1H-isoquinoline-2-carbonyl]-1,3-benzodioxol-5-yl]-5,6,7,8-tetrahydroindolizine-1-carboxamide], > 50 nM.
